Test results from patent US12054483B2, “Small molecule inhibitors of DYRK/CLK and uses thereof” (Arizona Board of Regents on Behalf of the University of …, priority 2018, dated 2024).

Each molecule was assayed against DYRK1A (Homo sapiens, UniProt Q13627) (assay: Affinity testing of compounds with DYRK1A (KD)). Settings: DYRK1A affinity key classes.
Assay type: binding

`Cc1nc2ccc(-c3ccncc3)nc2n1-c1ccc(CN2C[C@@H]3C[C@@H]2CO3)cc1` [Compound 124, (1S,4R)-5-(4-(2-methyl-5-(pyridin-4-yl)-3H-imidazo[4,5-b]pyridin-3-yl)benzyl)-2-oxa-5-azabicyclo[2.2.1]heptane] and `Cc1nc2ccc(-c3ccncc3)nc2n1-c1ccc(CN2CCN(C)CC2)cc1` [Compound 125, 2-methyl-3-(4-((4-methylpiperazin-1-yl)methyl)phenyl)-5-(pyridin-4-yl)-3H-imidazo[4,5-b]pyridine] fall in the same range of Kd: 0.5 to 100 nM for the first, 0.5 to 100 nM for the second.

`Cc1nc2ccc(-c3ccncc3)nc2n1-c1ccc(CN2CCS(=O)(=O)CC2)cc1` [Compound 126, 4-(4-(2-methyl-5-(pyridin-4-yl)-3H-imidazo[4,5-b]pyridin-3-yl)benzyl)thiomorpholine 1,1-dioxide] and `Cc1nc2ccc(-c3ccncc3)nc2n1-c1ccc(N2CCN(C)CC2)cc1` [Compound 132, 2-methyl-3-(4-(4-methylpiperazin-1-yl)phenyl)-5-(pyridin-4-yl)-3H-imidazo[4,5-b]pyridine] fall in the same range of Kd: 0.5 to 100 nM for the first, 0.5 to 100 nM for the second.

`Cc1nc2ccc(-c3ccnc(N)c3)c(F)c2n1-c1ccc(N2CCOCC2)cc1` [Compound 127, 4-(7-fluoro-2-methyl-1-(4-morpholinophenyl)-1H-benzo[d]imidazol-6-yl)pyridin-2-amine] and `Cc1nc2ccc(-c3ccnc(N)c3)nc2n1-c1ccc(N2CCOCC2)cc1` [Compound 148, 4-(2-methyl-3-(4-morpholinophenyl)-3H-imidazo[4,5-b]pyridin-5-yl)pyridin-2-amine] fall in the same range of Kd: 0.5 to 100 nM for the first, 0.5 to 100 nM for the second.

`Cc1nc2ncc(-c3ccnc(N)c3)nc2n1-c1ccc(N2CCOCC2)cc1` [Compound 128, 4-(2-methyl-1-(4-morpholinophenyl)-1H-imidazo[4,5-b]pyrazin-6-yl)pyridin-2-amine] and `Cc1nc2ncc(-c3ccncc3)nc2n1-c1ccc(N2CCOCC2)cc1` [Compound 129, 4-(4-(2-methyl-6-(pyridin-4-yl)-1H-imidazo[4,5-b]pyrazin-1-yl)phenyl)morpholine] fall in the same range of Kd: 501 to 10000 nM for the first, 501 to 10000 nM for the second.

`Cc1nc2ncc(-c3ccnc(N)c3)nc2n1-c1ccc2[nH]cnc2c1` [Compound 130, 4-(1-(1H-benzo[d]imidazol-5-yl)-2-methyl-1H-imidazo[4,5-b]pyrazin-6-yl)pyridin-2-amine] and `Cc1nc2ncc(-c3ccncc3)nc2n1-c1ccc2[nH]cnc2c1` [Compound 131, 1-(1H-benzo[d]imidazol-5-yl)-2-methyl-6-(pyridin-4-yl)-1H-imidazo[4,5-b]pyrazine] fall in the same range of Kd: 101 to 500 nM for the first, 101 to 500 nM for the second.

First: Cc1nc2ccc(-c3ccncc3)nc2n1-c1ccc(CN2CCOCC2)nc1 [Compound 133, 4-((5-(2-methyl-5-(pyridin-4-yl)-3H-imidazo[4,5-b]pyridin-3-yl)pyridin-2-yl)methyl)morpholine]
Second: Cc1nc2ccc(-c3ccnc(N)c3)nc2n1-c1ccc(CN2CCOCC2)nc1 [Compound 149, 4-(2-methyl-3-(6-(morpholinomethyl)pyridin-3-yl)-3H-imidazo[4,5-b]pyridin-5-yl)pyridin-2-amine]
The Kd of the first is lower: 101 to 500 nM for the first, 501 to 10000 nM for the second. The first binds more tightly here.

First: Cc1nc2ccc(-c3ccncc3)nc2n1-c1ccc(N2CCOCC2)cc1 [Compound 134, 4-(4-(2-methyl-5-(pyridin-4-yl)-3H-imidazo[4,5-b]pyridin-3-yl)phenyl)morpholine]
Second: Cc1nc2ccc(-c3ccncc3)nc2n1-c1cccc(CN2CCOCC2)c1 [Compound 140, 4-(3-(2-methyl-5-(pyridin-4-yl)-3H-imidazo[4,5-b]pyridin-3-yl)benzyl)morpholine]
The Kd of the first is higher: 101 to 500 nM for the first, 0.5 to 100 nM for the second. The second binds more tightly here.

`Cc1nc2ccc(-c3ccncc3)nc2n1-c1ccc(N2CCN(C)CC2)c(F)c1` [Compound 135, 3-(3-fluoro-4-(4-methylpiperazin-1-yl)phenyl)-2-methyl-5-(pyridin-4-yl)-3H-imidazo[4,5-b]pyridine] and `Cc1nc2ccc(-c3ccnc(N)c3)nc2n1-c1ccc(N2CCN(C)CC2)c(F)c1` [Compound 151, 4-(3-(3-fluoro-4-(4-methylpiperazin-1-yl)phenyl)-2-methyl-3H-imidazo[4,5-b]pyridin-5-yl)pyridin-2-amine] fall in the same range of Kd: 0.5 to 100 nM for the first, 0.5 to 100 nM for the second.

`Cc1nc2ccc(-c3ccncc3)nc2n1-c1ccc2[nH]ccc2c1` [Compound 136, 3-(1H-indol-5-yl)-2-methyl-5-(pyridin-4-yl)-3H-imidazo[4,5-b]pyridine] and `Cc1nc2ccc(-c3ccnc(N)c3)nc2n1-c1ccc2[nH]ccc2c1` [Compound 150, 4-(3-(1H-indol-5-yl)-2-methyl-3H-imidazo[4,5-b]pyridin-5-yl)pyridin-2-amine] fall in the same range of Kd: 0.5 to 100 nM for the first, 0.5 to 100 nM for the second.

`Cc1nc2ccc(-c3ccncc3)nc2n1-c1cnc2[nH]ccc2c1` [Compound 137, 2-methyl-5-(pyridin-4-yl)-3-(1H-pyrrolo[2,3-b]pyridin-5-yl)-3H-imidazo[4,5-b]pyridine] and `Cc1nc2ccc(-c3ccnc(N)c3)nc2n1-c1cnc2[nH]ccc2c1` [Compound 152, 4-(2-methyl-3-(1H-pyrrolo[2,3-b]pyridin-5-yl)-3H-imidazo[4,5-b]pyridin-5-yl)pyridin-2-amine] fall in the same range of Kd: 0.5 to 100 nM for the first, 0.5 to 100 nM for the second.

`Cc1nc2cc(-n3c(C)nc4ccc(-c5ccncc5)nc43)ccc2[nH]1` [Compound 138, 2-methyl-3-(2-methyl-1H-benzo[d]imidazol-5-yl)-5-(pyridin-4-yl)-3H-imidazo[4,5-b]pyridine] and `Cc1c2cc(-n3c(C)nc4ccc(-c5ccncc5)nc43)ccc2nn1C` [Compound 139, 3-(2,3-dimethyl-2H-indazol-5-yl)-2-methyl-5-(pyridin-4-yl)-3H-imidazo[4,5-b]pyridine] fall in the same range of Kd: 0.5 to 100 nM for the first, 0.5 to 100 nM for the second.

First: Cc1nc2ccc(-c3ccncc3)nc2n1-c1ccc(Cl)cn1 [Compound 141, 3-(5-chloropyridin-2-yl)-2-methyl-5-(pyridin-4-yl)-3H-imidazo[4,5-b]pyridine]
Second: COc1cc(-n2c(C)nc3ccc(-c4ccncc4)nc32)ccc1CN1CCOCC1 [Compound 142, 4-(2-methoxy-4-(2-methyl-5-(pyridin-4-yl)-3H-imidazo[4,5-b]pyridin-3-yl)benzyl)morpholine]
The Kd of the first is lower: 0.5 to 100 nM for the first, 101 to 500 nM for the second. The first binds more tightly here.

`Cc1nc2ccc(-c3ccnc4[nH]ccc34)nc2n1-c1ccc(N2CCOCC2)c(F)c1` [Compound 143, 4-(2-fluoro-4-(2-methyl-5-(1H-pyrrolo[2,3-b]pyridin-4-yl)-3H-imidazo[4,5-b]pyridin-3-yl)phenyl)morpholine] and `Cc1nc2ccc(-c3ccnc(N)c3)nc2n1-c1ccc(N2CCOCC2)c(F)c1` [Compound 144, 4-(3-(3-fluoro-4-morpholinophenyl)-2-methyl-3H-imidazo[4,5-b]pyridin-5-yl)pyridin-2-amine] fall in the same range of Kd: 0.5 to 100 nM for the first, 0.5 to 100 nM for the second.

`Cc1cc(-c2ccc3nc(C)n(-c4ccc(N5CCOCC5)c(F)c4)c3n2)ccn1` [Compound 145, 4-(2-fluoro-4-(2-methyl-5-(2-methylpyridin-4-yl)-3H-imidazo[4,5-b]pyridin-3-yl)phenyl)morpholine] and `Cc1nc2ccc(-c3cnn(C)c3)nc2n1-c1ccc(N2CCOCC2)c(F)c1` [Compound 146, 4-(2-fluoro-4-(2-methyl-5-(1-methyl-1H-pyrazol-4-yl)-3H-imidazo[4,5-b]pyridin-3-yl)phenyl)morpholine] fall in the same range of Kd: 0.5 to 100 nM for the first, 0.5 to 100 nM for the second.

Work on `Cc1nc2ccc(-c3cnn(C4CC4)c3)nc2n1-c1ccc(N2CCOCC2)c(F)c1` [Compound 147, 4-(4-(5-(1-cyclopropyl-1H-pyrazol-4-yl)-2-methyl-3H-imidazo[4,5-b]pyridin-3-yl)-2-fluorophenyl)morpholine] yielded a Kd of 0.5 to 100 nM.
